Test results published in patent US20050130903A1, “Therapeutic agents and methods of use thereof for the modulation of angiogenesis” (priority 2000, published 2005).
Like-named read-outs stand apart in the source and are kept apart here. Blank lines part the entries; values can stand above or below the compound they belong to. Square brackets hold non-standard residues; d marks the D form. Peptide text beside a SMILES is read from it. * marks the point of attachment. ξ: configuration not given here. X1 = CO[C@H]1C([C@@]2(C)O[C@@H]2CC=C(C)C)[C@]2(CC[C@H]1OC(=O)N[C@@H](CO*)C(C)C)CO2; X2 = CO[C@@H]1[C@H](OC(=O)*)CC[C@]2(CO2)[C@H]1[C@@]1(C)O[C@@H]1CC=C(C)C; X3 = CO[C@@H]1[C@H](OC(=O)*)CC[C@]2(CO2)[C@H]1[C@@]1(C)O[C@@H]1CCC(C)C; ξP = O=C(O)C1CCCN1

Experiments:
MetAP2 = molecular target: T1, MetAP2 (Homo sapiens, UniProt P50579); assay: MetAP2 enzyme assay; type: biochemical
T1 construct: made in house; host or cells: insect cells
T1 sequence (P50579 whole entry): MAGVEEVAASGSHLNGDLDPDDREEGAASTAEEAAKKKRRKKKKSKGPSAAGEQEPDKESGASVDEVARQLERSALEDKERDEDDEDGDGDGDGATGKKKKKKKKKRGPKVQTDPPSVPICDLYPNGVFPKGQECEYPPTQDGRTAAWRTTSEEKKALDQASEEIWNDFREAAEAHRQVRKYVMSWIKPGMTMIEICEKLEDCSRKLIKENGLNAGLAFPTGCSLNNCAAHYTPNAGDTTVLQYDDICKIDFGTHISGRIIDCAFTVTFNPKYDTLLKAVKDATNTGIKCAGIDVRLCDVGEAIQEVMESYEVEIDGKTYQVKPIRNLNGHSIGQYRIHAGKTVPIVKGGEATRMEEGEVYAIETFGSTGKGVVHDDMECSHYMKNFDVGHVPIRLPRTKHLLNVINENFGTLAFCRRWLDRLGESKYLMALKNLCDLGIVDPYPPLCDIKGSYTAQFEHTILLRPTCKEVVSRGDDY
Description: Finally, the ability of the angiogenesis inhibitor compounds of the invention to modulate the activity of MetAP2 may be tested as follows. Recombinant human MetAP2 may be expressed and purified from insect cells as described in Li and Chang, (1996) Biochem. Biophys. Res. Commun. 227:152-159. Various amounts of angiogenesis inhibitor compound is then added to buffer H (10 mM Hepes, pH 7.35, 100 mM KCl, 10% glycerol, and […]) containing 1 nM purified recombinant human MetAP2 and incubated at 37° C. for 30 minutes. To start the enzymatic reaction a peptide containing a methionine residue, e.g., Met-Gly-Met, is added to the reaction mixture (to a concentration of 1 mM). Released methionine is subsequently quantified at different time points (e.g., at 0, 2, 3, and 5 minutes) using the method of Zou et al. (1995) Mol. Gen Genetics 246:247-253).
(§1) The angiogenesis inhibitor compounds of the invention were tested for their ability to modulate human endothelial cell growth and for their ability to modulate the activity of MetAP2. The MetAP2 enzyme assay was performed essentially as described in Turk, B. et al. (1999) Chem. & Bio. 6: 823-833, the entire contents of which are incorporated herein by reference. The bovine aortic endothelial cell growth assay (Baec assay) was performed essentially as described in Turk, B. et al. (supra), the entire contents of which are incorporated herein by reference.

[1] = test system: human umbilical vein endothelial cells (HUVEC); assay: human endothelial cell growth assay (Huvec assay); type: cell-based
Description: For the human endothelial cell growth assay, human umbilical vein endothelial cells (HUVEC) were maintained in Clonetics endothelial growth medium (EGM) in a 37° C. humidified incubator. Cells were detached with trypsin and pelleted by centrifugation at 300×g for 5 minutes at room temperature. HUVEC were added to 96-well plates at 5,000 cells/well. After incubating for 6 hours, the medium was replaced with 0.2 ml fresh EGM supplemented with 0.5 nM bFGF and the desired concentration of test angiogenesis inhibitor compound. Test angiogenesis inhibitor compounds were initially dissolved in ethanol at stock concentrations of either 10 mM or 0.1 mM, and subsequently diluted in EGM to obtain concentrations from […] to 10 μM. After 48 hours at 37° C., the medium was replaced with fresh bFGF-supplemented EGM and test angiogenesis inhibitor compound. Following incubation for an additional 48 hours at 37° C. MTT (3-[4,5-dimethylthiazol-2-yl]-2,5-diphenyl-tetrazolium bromide) was added to 1 mg/ml. After 2-4 hours at 37° C. the medium was replaced with 0.1 ml/well isopropanol. The plates were placed on a shaker for 15 minutes at room temperature and analyzed in a Labsystems Multiskan plate spectrophotometer at an optical density of 570 nm.

[2] = test system: bovine aortic endothelial cell; assay: bovine aortic endothelial cell growth assay (Baec assay); type: cell-based
Description: as §1

[3] = plasma stability in human plasma; type: in vitro ADME; conditions: human plasma, 37° C., 20 μM
Description: The plasma stability of the angiogenesis inhibitor compounds of the invention was also tested in human plasma at 37° C. (at a 20 μM concentration of the angiogenesis inhibitor compound). The matrix minus the test angiogenesis inhibitor compound was equilibrated at 37° C. for 3 minutes. The assay was initiated by addition of the test compound, and the reaction mixture was incubated in a shaking water bath at 37° C. […] The supernatant was analysed by Liquid Chromatography/Mass spectrometry (LC/MS) using a four point standard curve to obtain percent recovery.
The parent compound remaining (relative to time 0) in the incubation mixture was plotted as a function of time; a first order exponential equation was fit to the observed data, and the elimination half-lives associated with the disappearance of the test angiogenesis inhibitor compound were determined.

[4] = stability in liver microsomes; type: in vitro ADME, rat; conditions: NADPH regenerating system
Description: The stability of the angiogenesis inhibitor compounds in liver microsomes was also tested. The test angiogenesis inhibitor compound at a concentration of 3 μM was incubated with male rat liver microsomes (0.5 mg/mL protein) in the presence of a NADPH regenerating system (1 mM NADP, 10 mM G6P, 1 U/mL G6PdH2, 3 mM MgCl2 ) in 100 mM Phosphate buffer at pH 7.4 at 37° C. Incubations were performed in the presence and absence of 1 μM epoxide hydrolase (EH) inhibitor N-cyclohexyl-N′-(3-phenylpropyl)urea (M. Morisseau et al. (1999) PNAS 96:8849-54) and quantitative analysis performed using LC/MS/MS.
The parent compound remaining (relative to time 0) in the incubation mixture was plotted as a function of time; a first order exponential equation was fit to the observed data, and the elimination half-lives associated with the disappearance of the test compound were determined.

[5] = Homo sapiens, HUVEC, bFGF-supplemented EGM, MTT

SMILES: COC(=O)[C@@H](NC(=O)O[C@@H]1CC[C@]2(CO2)[C@@H]([C@@]2(C)O[C@@H]2CC=C(C)C)[C@@H]1OC)C(C)C [Example 1, 2-{(3R,4S,5S,6R)-5-Methoxy-4-[(2R,3R)-2-methyl-3-(3-methyl-but-2-enyl)-oxiranyl]-1-oxa-spiro[2.5]oct-6-yloxycarbonylamino}-3-methyl-butyric acid methyl ester]
IC50 (MetAP2; read-out: MetAP2 Assay IC50): 4.7 nM
IC50 [1, 5]: 0.018 nM
IC50 ([2]; Bos taurus, BAEC): 0.017 nM

SMILES: COC(=O)[C@H](NC(=O)O[C@@H]1CC[C@]2(CO2)[C@@H]([C@@]2(C)O[C@@H]2CC=C(C)C)[C@@H]1OC)C(C)C [Example 2, 2-{(3R,4S,5S,6R)-5-Methoxy-4-[(2R,3R)-2-methyl-3-(3-methyl-but-2-enyl)-oxiranyl]-1-oxa-spiro[2.5]oct-6-yloxycarbonylamino}-3-methyl-butyric acid methyl ester]
IC50 (MetAP2; read-out: MetAP2 Assay IC50): 2 nM
IC50 [1, 5]: 0.04 nM
IC50 ([2]; Bos taurus, BAEC): 0.048 nM

SMILES: COC(=O)[C@@H](CC(C)C)NC(=O)O[C@@H]1CC[C@]2(CO2)[C@@H]([C@@]2(C)O[C@@H]2CC=C(C)C)[C@@H]1OC [Example 3, 2-{(3R,4S,5S,6R)-5-Methoxy-4-[(2R,3R)-2-methyl-3-(3-methyl-but-2-enyl)-oxiranyl]-1-oxa-spiro[2.5]oct-6-yloxycarbonylamino}-4-methyl-pentanoic acid methyl ester]
IC50 (MetAP2; read-out: MetAP2 Assay IC50): 5.5 nM
IC50 [1, 5]: 0.038 nM
IC50 ([2]; Bos taurus, BAEC): 0.118 nM

IC50 (MetAP2; read-out: MetAP2 Assay IC50): 2.7 nM
SMILES: COC(=O)[C@H](NC(=O)O[C@@H]1CC[C@]2(CO2)[C@@H]([C@@]2(C)O[C@@H]2CC=C(C)C)[C@@H]1OC)c1ccccc1 [Example 4, {(3R,4S,5S,6R)-5-Methoxy-4-[(2R,3R)-2-methyl-3-(3-methyl-but-2-enyl)-oxiranyl]-1-oxa-spiro[2.5]oct-6-yloxycarbonylamino}-phenyl-acetic acid methyl ester]

SMILES: COc1ccc(C[C@H](NC(=O)[C@H](CC(=O)O)NC(=O)CNC(=O)[C@H](CCCNC(=N)N)NC(=O)CNC(=O)O[C@@H]2CC[C@]3(CO3)[C@@H]([C@@]3(C)O[C@@H]3CCC(C)C)[C@@H]2OC)C(=O)N[C@@H](CCCNC(=N)N)C(=O)N[C@@H](CCC(=O)O)C(N)=O)cc1 [Example 14] (X3-GRGDY(Me)RE-NH2)
IC50 (MetAP2): 4000 nM
IC50 [1]: > 10000 nM

SMILES: CO[C@@H]1[C@H](OC(=O)NCC(=O)N[C@@H](CCCNC(=N)N)C(=O)NCC(=O)N[C@@H](CC(=O)O)c2cccnc2)CC[C@]2(CO2)[C@H]1[C@@]1(C)O[C@@H]1CC=C(C)C [Example 16, N-Carbamoyl (ID#40) (3R,4S,5S,6R) 5-methoxy-4-[(2R,3R)2-methyl-3-(3-methyl-but-2-enyl)-oxiranyl]-1-oxa-spiro[2.5]oct-6-yl ester]
IC50 [2]: > 100 nM

SMILES: CO[C@@H]1[C@H](OC(=O)NCC(=O)N2CCCC2C(=O)N[C@@H](CC(C)C)C(=O)NCC(=O)N[C@@H](CCSC)C(=O)N[C@@H](Cc2c[nH]c3ccccc23)C(=O)N[C@@H](C)C(=O)NCC(N)=O)CC[C@]2(CO2)[C@H]1[C@@]1(C)O[C@@H]1CC=C(C)C (some centres unmarked) [Example 17] (X2-G[ξP]LGMWAG-NH2)
IC50 (MetAP2): 16.7 nM
IC50 [1]: 95 nM

SMILES: CO[C@H]1C([C@@]2(C)O[C@@H]2CC=C(C)C)[C@]2(CC[C@H]1OC(=O)N[C@@H](COC(=O)[C@H](C)NC(=O)[C@H](Cc1c[nH]c3ccccc13)NC(=O)[C@H](CCSC)NC(=O)CNC(=O)[C@H](CC(C)C)NC(=O)[C@@H]1CCCN1C(C)=O)C(C)C)CO2 (stereo partly drawn) [Example 20, (ID#24)-(2R-{(3R,4S,5S,6R) 5-methoxy-4-[(2R,3R)2-methyl-3-(3-methyl-but-2-enyl)-oxiranyl]-1-oxa-spiro[2.5]oct-6-yloxycarbonyl}amino-3-methyl-butanol)ester] (Ac-PLGMWA-X1)
recovery at 0 min, 20 μM ([3]; 0 min, read-out: Percent Recovery (Remaining) 0 min): 110%
recovery at 15 min, 20 μM ([3]; 15 min, read-out: Percent Recovery (Remaining) 15 min): 114%
recovery at 30 min, 20 μM ([3]; 30 min, read-out: Percent Recovery (Remaining) 30 min): 114%
recovery at 60 min, 20 μM ([3]; 60 min, read-out: Percent Recovery (Remaining) 60 min): 120%
recovery at 90 min, 20 μM ([3]; 90 min, read-out: Percent Recovery (Remaining) 90 min): 106%
recovery at 120 min, 20 μM ([3]; 120 min, read-out: Percent Recovery (Remaining) 120 min): 103%
half-life at 20 μM ([3]; first order fit, read-out: T1/2): ≥ 500 min

SMILES: CO[C@@H]1[C@H](OC(=O)N[C@@H](COC(=O)[C@H](C)NC(=O)[C@H](Cc2c[nH]c3ccccc23)NC(=O)[C@@H](N)CCSC)C(C)C)CC[C@]2(CO2)[C@H]1[C@@]1(C)O[C@@H]1CC=C(C)C [Example 22, (ID#37)-(2R-{(3R,4S,5S,6R) 5-methoxy-4-[(2R,3R)2-methyl-3-(3-methyl-but-2-enyl)-oxiranyl]-1-oxa-spiro[2.5]oct-6-yloxycarbonyl}amino-3-methyl-butanol)ester]
IC50 [2]: 0.326 nM

SMILES: CO[C@@H]1[C@H](OC(=O)N[C@@H](COC(=O)CNC(=O)[C@@H](N)CCSC)C(C)C)CC[C@]2(CO2)[C@H]1[C@@]1(C)O[C@@H]1CC=C(C)C [Example 23, (ID#38)-(2R-{(3R,4S,5S,6R) 5-methoxy-4-[(2R,3R)2-methyl-3-(3-methyl-but-2-enyl)-oxiranyl]-1-oxa-spiro[2.5]oct-6-yloxycarbonyl}amino-3-methyl-butanol)ester]
IC50 [2]: 0.207 nM

SMILES: CO[C@@H]1[C@H](OC(=O)NC(=O)CCl)CC[C@]2(CO2)[C@H]1[C@@]1(C)O[C@@H]1CC=C(C)C [TNP-470, reference compound]
T1/2 (with EH inhibitor) ([4]; male rat liver microsomes 0.5 mg/mL, 3 μM, with 1 μM EH inhibitor): >1.0 min
half-life at 3 μM ([4]; pH 7.4, male rat liver microsomes 0.5 mg/mL, without EH inhibitor, read-out: T1/2 (without EH inhibitor)): > 1 min
